# Test results from US7932283B2, “Fungicide N-cyclopropyl-sulfonylamide derivatives” (Bayer Cropscience AG, priority 2006, dated 2011).
# How the values were obtained:
# Alternaria solani = experiment: In vivo test on Alternaria solani (tomato leaf spot), preventive spray; conditions: 168 h, tomato young plants, evaluated 7 days after inoculation, good (at least 70%) to total protection
# Experimental: In Vivo Test on Alternaria Solani (Tomato Leaf Spot) [table] To produce a suitable preparation of active compound, 1 part by weight of active compound is mixed with the stated amounts of solvent and emulsifier, and the concentrate is diluted with water to the desired concentration. Young plants are sprayed with the preparation of active compound at the stated rate of application. After the spray coating has dried on, the plants are inoculated with an aqueous spore suspension of Alternaria solani. The plants remain for one day in an incubation cabinet at approximately 20° C. and a relative atmospheric humidity of 100%. Then the plants are placed in an incubation cabinet at approximately 20° C. and a relative atmospheric humidity of 96%. The test is evaluated 7 days after the inoculation. Under these conditions, good (at least 70%) to total protection is observed at a dose of 500 ppm with the following compounds 110, 143, 160, 175, 176, 178, 179, 180, 186, 187, 189, 192, 196, 198, 203, 204, 205, 209, 210, 212, 214, 215 and 652.
# Podosphaera leucotricha = experiment: In vivo test on Podosphaera leucotricha (apple mildew), preventive spray; conditions: 240 h, apple young plants, evaluated 10 days after inoculation, good (at least 70%) to total protection
# Experimental: In Vivo Test on Podosphaera leucotncha (Apple Mildew) [table] To produce a suitable preparation of active compound, 1 part by weight of active compound is mixed with the stated amounts of solvent and emulsifier, and the concentrate is diluted with water to the desired concentration. Young plants are sprayed with the preparation of active compound at the stated rate of application. After the spray coating has dried on, the plants are inoculated with an aqueous spore suspension of the causal agent of apple mildew (Podosphaera leucobicha). The plants are then placed in a greenhouse at approximately 23° C. and a relative atmospheric humidity of approximately 70%. The test is evaluated 10 days after the inoculation. Under these conditions, good (at least 70%) to total protection is observed at a dose of 100 ppm with the following compounds: 104, 160, 176, 177, 180, 186, 187, 188, 192, 194, 196, 198, 203, 204, 205, 207, 209, 210, 211, 212, 213, 218 and 446.
# [1] = tested on: Erysiphe graminis f.sp. horde; experiment: In vivo test on Erysiphe graminis (barley mildew), preventive spray; conditions: Blumeria graminis, 168 h, barley young plants, evaluated 7 days after inoculation, good (at least 70%) to total protection
# Experimental: In Vivo Test on Erysiphe Graminis (Barley Mildew) [table] To produce a suitable preparation of active compound, 1 part by weight of active compound or active compound combination is mixed with the stated amounts of solvent and emulsifier, and the concentrate is diluted with water to the desired concentration. Young plants are sprayed with the preparation of active compound or active compound combination at the stated rate of application. After the spray coating has dried on, the plants are dusted with spores of Erysiphe graminis f.sp. horde. The plants are placed in a greenhouse at a temperature of approximately 20° C. and a relative atmospheric humidity of approximately 80% to promote the development of mildew pustules. The test is evaluated 7 days after the inoculation. Under these conditions, good (at least 70%) to total protection is observed at a dose of 1000 ppm with the following compounds: 104, 160, 177, 178, 186, 192, 194, 203, 204, 205, 207, 210, 212, 213 and 435.
# [2] = logP by HPLC on reversed-phase column (C 18), EEC Directive 79/B31 Annex V.A8, methods A and B; type: physicochemical; conditions: reversed-phase HPLC column (C 18), HPLC reversed-phase C 18, method A: 43° C., 0.1% aqueous phosphoric acid, acetonitrile, linear gradient 10% to 90% acetonitrile
# Experimental: Calibration was carried out using unbranched alkan-2-ones (having 3 to 16 carbon atoms) with known logP values (determination of the logP values by the retention times using linear interpolation between two successive alkanones).
# Pyrenophora teres = experiment: In vivo test on Pyrenophora teres (barley net blotch); conditions: 288 h, barley plants (Express variety), grading 12 days after contamination, good (at least 70%) or total protection
# Experimental: In Vivo Test on Pyrenophore teres (Barley Net Blotch)
# The active ingredients tested are prepared by homogenisation in a mixture of acetone/tween/DMSO, then diluted with water to obtain the desired active material concentration. Barley plants (Express variety) in starter cups, sown on a 50/50 peat soil-pozzolana substrate and grown at 12° C., are treated at the 1-leaf stage (10 cm tall) by spraying with the active ingredient prepared as described above. Plants, used as controls, are treated with the mixture of acetone/tween/DMSO/water not containing the active material.
# After 24 hours, the plants are contaminated by spraying them with an aqueous suspension of Pyrenophora teres spores (12,000 spores per ml). The spores are collected from a 12-day-old culture. The contaminated barley plants are incubated for 24 hours at about 20° C. and at 100% relative humidity, and then for 12 days at 80% relative humidity.
chromatographic logP [2],Structure (SMILES),pest or weed control at 500 ppm (Alternaria solani),pest or weed control at 100 ppm (Podosphaera leucotricha),pest or weed control at 1000 ppm [1],pest or weed control at 500 ppm (Pyrenophora teres)
2.77,Cc1nn(C)c(F)c1C(=O)N(C1CC1)S(=O)(=O)c1cccc(O)c1O [Compound 210],≥ 70%,≥ 70%,≥ 70%,≥ 70%
3.35,Cc1nn(C)c(F)c1C(=O)N(C1CC1)S(=O)(=O)c1ccc(O)c(O)c1O [Compound 212],≥ 70%,≥ 70%,≥ 70%,–

# Further lines, the compound ahead of its results:
Structure (SMILES),chromatographic logP [2],pest or weed control at 500 ppm (Alternaria solani),pest or weed control at 100 ppm (Podosphaera leucotricha),pest or weed control at 1000 ppm [1],pest or weed control at 500 ppm (Pyrenophora teres)
Cc1nn(C)c(F)c1C(=O)N(C1CC1)S(=O)(=O)c1ccccc1OC(F)(F)F [Compound 203],2.75,≥ 70%,≥ 70%,≥ 70%,–
Cc1nn(C)c(F)c1C(=O)N(C1CC1)S(=O)(=O)c1ccccc1Br [Compound 204],2.37,≥ 70%,≥ 70%,≥ 70%,–
Cc1nn(C)c(F)c1C(=O)N(C1CC1)S(=O)(=O)c1ccccc1F [Compound 205],2.25,≥ 70%,≥ 70%,≥ 70%,–
